# What was measured:
# [1] = target: Voltage-gated inwardly rectifying potassium channel KCNH2 (Homo sapiens, UniProt Q12809); assay: Inhibition of hERG transfected in HEK293 cells by patch clamp assay; format: toxicity, cell-based
# [2] = Genotoxicity in Salmonella typhimurium TA1535 by Ames test; format: toxicity; settings: salmonella enterica subsp. enterica serovar typhimurium
# [3] = Toxicity in cynomolgous monkey assessed as increase in salivation at 90 to 200 mg/kg/day for 28 days consecutively; format: organism-based, Macaca fascicularis; settings: cynomolgus monkey, in vivo, 672 h; dose 90-200 mg/kg/day, time 28 day
# [4] = Half life in Tufted capuchin monkey at 100 mg/kg, po measured for 24 hrs by LC-MS/MS analysis; format: ADME, organism-based; settings: sapajus apella, in vivo
# [5] = Tmax in Tufted capuchin monkey at 100 mg/kg, po measured for 24 hrs by LC-MS/MS analysis; format: ADME, organism-based; settings: sapajus apella, in vivo
# Sapajus apella [6] = assay: Urate lowering effect in Tufted capuchin monkey assessed as fraction excretion of uric acid at 100 mg/kg/day, po qd for 3 days consecutively relative to control; format: functional; settings: time 3 day
# [7] = Inhibition of SLC (unknown origin); parameters: species or system Homo sapiens
# Cytochrome P450 2D6 = Cytochrome P450 2D6 (Homo sapiens, UniProt P10635); assay: Inhibition of CYP2D6 in human liver microsomes in presence of NADPH by LC-MS/MS analysis; format: ADME, Microsome
# [8] = Toxicity in rat assessed as increase in liver weight at 60 to 120 mg/kg/day for 28 days; format: organism-based; settings: in vivo, 672 h, dose 60-120 mg/kg/day, time 28 day
# [9] = Half life in Tufted capuchin monkey at 30 mg/kg, po measured for 24 hrs by LC-MS/MS analysis; format: ADME, organism-based; settings: sapajus apella, in vivo
# [10] = Toxicity in rat assessed as increase in CHOL level at 120 mg/kg/day for 28 days; format: organism-based; settings: in vivo, 672 h, time 28 day
# [11] = Toxicity in rat; settings: in vivo
# [12] = Volume of distribution at steady state in Beagle dog at 5 mg/kg, po or 1 mg/kg, iv measured upto 24 hrs by LC-MS/MS analysis; format: ADME, organism-based, Canis lupus familiaris; settings: in vivo
# [13] = AUC (last) in Tufted capuchin monkey at 30 mg/kg, po measured for 24 hrs by LC-MS/MS analysis; format: ADME, organism-based; settings: sapajus apella, in vivo
# [14] = Tmax in Tufted capuchin monkey at 30 mg/kg, po measured for 24 hrs by LC-MS/MS analysis; format: ADME, organism-based; settings: sapajus apella, in vivo
# Sapajus apella [15] = settings: dose 100.0 mg/kg/day, route po, time 3.0 day
# [16] = AUC (last) in overnight-fasted Sprague-Dawley rat at 5 mg/kg, po measured upto 24 hrs by LC-MS/MS analysis; format: ADME, organism-based; settings: in vivo
# [17] = Ratio of drug concentration in Sprague-Dawley rat kidney to plasma at 3 mg/kg, po measured for 24 hrs by LC-MS/MS analysis; format: ADME, organism-based; settings: kidney and plasma
# Sapajus apella [18] = assay: Urate lowering effect in Tufted capuchin monkey assessed as urine xanthine level at 30 mg/kg/day, po qd for 3 days consecutively; format: functional; settings: time 3 day
# [19] = Toxicity in rat administered daily for 28 days; settings: in vivo, time 28 day
# [20] = Stability in monkey liver microsomes assessed as half life at 1 uM measured upto 60 mins in presence of NADPH by LC-MS/MS analysis; format: ADME, Macaca mulatta, Microsome; settings: rhesus monkey
# Cytochrome P450 2B6 = target: T1, Cytochrome P450 2B6 (Homo sapiens, UniProt P20813); assay: Induction of CYP2B6 in human hepatocytes at 50 uM incubated for 48 hrs with media containing compound renewal every 24 hrs followed by substrate addition measured after 30 mins by LC-MS/MS analysis; format: ADME, cell-based, Hepatocyte; settings: 48.5 h
# T1 sequence (P20813 whole entry): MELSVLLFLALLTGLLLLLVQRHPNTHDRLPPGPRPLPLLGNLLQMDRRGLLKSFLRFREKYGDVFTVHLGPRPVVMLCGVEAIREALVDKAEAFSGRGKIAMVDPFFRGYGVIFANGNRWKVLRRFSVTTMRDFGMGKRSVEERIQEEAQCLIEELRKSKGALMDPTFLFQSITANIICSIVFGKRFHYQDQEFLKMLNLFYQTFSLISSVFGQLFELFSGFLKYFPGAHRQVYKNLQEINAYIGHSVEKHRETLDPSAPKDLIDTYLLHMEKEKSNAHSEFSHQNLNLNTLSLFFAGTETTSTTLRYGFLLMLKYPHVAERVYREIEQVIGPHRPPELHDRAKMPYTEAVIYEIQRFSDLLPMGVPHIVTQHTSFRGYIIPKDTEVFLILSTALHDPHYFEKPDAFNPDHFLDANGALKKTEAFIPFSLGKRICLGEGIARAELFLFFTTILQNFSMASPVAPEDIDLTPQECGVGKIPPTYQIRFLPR
# [21] = AUC (0 to t) in female cynomolgous monkey at 30 mg/kg/day for 28 days; format: ADME, organism-based, Macaca fascicularis; settings: cynomolgus monkey, in vivo, time 28 day
# [22] = Genotoxicity in Salmonella typhimurium TA98 by Ames test; format: toxicity; settings: salmonella enterica subsp. enterica serovar typhimurium
# [23] = Toxicity in Sprague-Dawley rat assessed as development-limiting effect; settings: in vivo
# [24] = AUC (0 to t) in male rat at 60 mg/kg/day for 28 days; format: ADME, organism-based; settings: in vivo, time 28 day
# Cytochrome P450 3A4 = Cytochrome P450 3A4 (Homo sapiens, UniProt P08684); assay: Inhibition of CYP3A4 in human liver microsomes in presence of NADPH by LC-MS/MS analysis; format: ADME, Microsome
# [25] = Genotoxicity in Salmonella typhimurium TA100 by Ames test; format: toxicity; settings: salmonella enterica subsp. enterica serovar typhimurium
# [26] = Tmax in Tufted capuchin monkey at 10 mg/kg, po measured for 24 hrs by LC-MS/MS analysis; format: ADME, organism-based; settings: sapajus apella, in vivo
# [27] = Stability in rat liver microsomes assessed as half life at 1 uM measured upto 60 mins in presence of NADPH by LC-MS/MS analysis; format: ADME, Microsome
# [28] = AUC (last) in Cynomolgous monkey at 1 mg/kg, iv measured upto 24 hrs by LC-MS/MS analysis; format: ADME, organism-based, Macaca fascicularis; settings: cynomolgus monkey, in vivo
# [29] = Oral bioavailability in Beagle dog at 5 mg/kg measured upto 24 hrs by LC-MS/MS analysis; format: ADME, organism-based, Canis lupus familiaris; settings: in vivo
# [30] = AUC (0 to t) in female rat at 60 mg/kg/day for 28 days; format: ADME, organism-based; settings: in vivo, time 28 day
# [31] = Toxicity in rat assessed as decrease in food consumption at 60 to 120 mg/kg/day for 28 days; format: organism-based; settings: in vivo, 672 h, dose 60-120 mg/kg/day, time 28 day
# [32] = Volume of distribution at steady state in overnight-fasted Sprague-Dawley rat at 5 mg/kg, po or 1 mg/kg, iv measured upto 24 hrs by LC-MS/MS analysis; format: ADME, organism-based; settings: in vivo
# [33] = Toxicity in cynomolgous monkey assessed as increase in vomiting at 90 to 200 mg/kg/day for 28 days consecutively; format: organism-based, Macaca fascicularis; settings: cynomolgus monkey, in vivo, 672 h; dose 90-200 mg/kg/day, time 28 day
# [34] = Genotoxicity in Salmonella typhimurium TA97 by Ames test; format: toxicity; settings: salmonella enterica subsp. enterica serovar typhimurium
# [35] = Toxicity in rat assessed as increase in salivation at 120 mg/kg/day for 28 days; format: organism-based; settings: in vivo, 672 h, time 28 day
# Chain of Voltage-gated inwardly rectifying potassium channel KCNH2 (Q12809 whole entry): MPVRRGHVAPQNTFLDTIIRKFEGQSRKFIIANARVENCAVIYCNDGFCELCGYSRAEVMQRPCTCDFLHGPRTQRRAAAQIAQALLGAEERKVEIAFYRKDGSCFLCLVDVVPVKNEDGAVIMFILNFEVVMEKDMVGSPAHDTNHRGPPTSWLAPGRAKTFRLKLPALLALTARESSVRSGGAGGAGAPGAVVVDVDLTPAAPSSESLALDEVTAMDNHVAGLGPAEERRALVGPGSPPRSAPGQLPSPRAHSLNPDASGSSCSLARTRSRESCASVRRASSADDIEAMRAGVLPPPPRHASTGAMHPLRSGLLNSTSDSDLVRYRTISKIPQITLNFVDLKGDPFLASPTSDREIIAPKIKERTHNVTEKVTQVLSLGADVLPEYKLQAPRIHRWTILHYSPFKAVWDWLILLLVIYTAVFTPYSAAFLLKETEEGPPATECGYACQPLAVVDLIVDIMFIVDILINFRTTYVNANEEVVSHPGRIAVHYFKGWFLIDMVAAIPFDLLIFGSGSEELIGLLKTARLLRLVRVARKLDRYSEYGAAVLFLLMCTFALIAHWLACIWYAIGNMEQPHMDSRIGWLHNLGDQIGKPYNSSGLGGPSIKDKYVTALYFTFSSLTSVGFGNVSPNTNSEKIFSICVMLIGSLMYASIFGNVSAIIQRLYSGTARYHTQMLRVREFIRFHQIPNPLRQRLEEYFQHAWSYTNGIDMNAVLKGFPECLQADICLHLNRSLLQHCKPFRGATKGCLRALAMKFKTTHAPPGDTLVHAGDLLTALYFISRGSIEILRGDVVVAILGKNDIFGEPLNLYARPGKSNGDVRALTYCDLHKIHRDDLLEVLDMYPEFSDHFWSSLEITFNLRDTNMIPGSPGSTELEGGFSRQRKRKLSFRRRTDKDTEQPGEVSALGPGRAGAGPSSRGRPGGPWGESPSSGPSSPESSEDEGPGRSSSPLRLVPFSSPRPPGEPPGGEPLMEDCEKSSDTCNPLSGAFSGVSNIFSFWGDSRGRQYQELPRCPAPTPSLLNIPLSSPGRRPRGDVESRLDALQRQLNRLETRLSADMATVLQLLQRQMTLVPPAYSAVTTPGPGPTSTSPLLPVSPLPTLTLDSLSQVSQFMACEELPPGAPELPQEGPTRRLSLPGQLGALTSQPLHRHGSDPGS
# Chain of Cytochrome P450 2D6 (P10635 whole entry): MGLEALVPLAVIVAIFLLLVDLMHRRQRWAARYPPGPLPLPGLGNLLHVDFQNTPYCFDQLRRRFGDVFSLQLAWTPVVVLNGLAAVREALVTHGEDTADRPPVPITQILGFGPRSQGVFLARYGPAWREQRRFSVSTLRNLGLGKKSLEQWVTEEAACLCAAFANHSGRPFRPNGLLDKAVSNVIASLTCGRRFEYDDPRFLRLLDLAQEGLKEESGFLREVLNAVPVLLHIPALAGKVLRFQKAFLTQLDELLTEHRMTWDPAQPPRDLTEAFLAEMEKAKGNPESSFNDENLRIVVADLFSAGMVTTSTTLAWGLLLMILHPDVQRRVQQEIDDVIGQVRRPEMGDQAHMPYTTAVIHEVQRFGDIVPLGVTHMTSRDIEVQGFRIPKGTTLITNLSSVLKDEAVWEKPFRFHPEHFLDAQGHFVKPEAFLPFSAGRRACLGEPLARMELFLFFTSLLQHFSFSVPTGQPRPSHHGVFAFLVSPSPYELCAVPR
# Chain of Cytochrome P450 3A4 (P08684 whole entry): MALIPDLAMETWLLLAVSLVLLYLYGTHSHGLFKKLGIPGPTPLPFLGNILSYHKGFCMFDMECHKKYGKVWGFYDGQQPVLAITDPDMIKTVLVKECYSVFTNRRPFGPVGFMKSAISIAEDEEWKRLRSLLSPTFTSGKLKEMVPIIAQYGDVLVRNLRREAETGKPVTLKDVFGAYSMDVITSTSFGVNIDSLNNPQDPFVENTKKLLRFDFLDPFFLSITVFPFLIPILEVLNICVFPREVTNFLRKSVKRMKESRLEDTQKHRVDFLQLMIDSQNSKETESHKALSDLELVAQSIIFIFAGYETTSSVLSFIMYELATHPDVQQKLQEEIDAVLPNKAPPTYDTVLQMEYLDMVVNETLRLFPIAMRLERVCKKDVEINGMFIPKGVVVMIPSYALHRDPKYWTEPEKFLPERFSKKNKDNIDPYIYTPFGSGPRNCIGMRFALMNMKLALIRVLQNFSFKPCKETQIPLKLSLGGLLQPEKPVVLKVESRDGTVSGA
compound,measurement,setting,value
N#Cc1cc(-c2ccc(C(=O)O)c(O)c2)c2oc(F)cc2c1,IC50,[1],> 52 µM
same,Activity,[2],Non-Toxic
same,Activity,[3],Toxic
same,half-life,[4],3.21 h
same,Tmax,[5],0.9 h
same,Activity,Sapajus apella [6],23.55%
same,IC50,[7],> 0.628 µM
same,IC50,Cytochrome P450 2D6,> 50 µM
same,Activity,[8],Toxic
same,half-life,[9],3.1 h
same,Activity,[10],Toxic
same,MTD,[11],450 mg/kg
same,Vdss,[12],1.71 L/kg
same,AUC(0-t) at 24 h,[13],31.6 µg·h/mL
same,Tmax,[14],0.8 h
same,AUC,Sapajus apella [15],357000 ng·h/mL
same,AUC(0-t) at 24 h,[16],81.7 µg·h/mL
same,Kp at 24 h,[17],0.56
same,Activity,Sapajus apella [18],29.26 µg·h/mL
same,NOAEL at 672 h,[19],60 mg/kg/day
same,half-life at 1 µM,[20],2.87 h
same,Activity,Cytochrome P450 2B6,< 20%
same,AUC(0-t) at 672 h,[21],336 µg·h/mL
same,Activity,[22],Non-Toxic
same,Activity,[23],Non-Toxic
same,AUC(0-t) at 672 h,[24],2250 µg·h/mL
same,IC50,Cytochrome P450 3A4,> 50 µM
same,Activity,[25],Non-Toxic
same,Tmax,[26],0.8 h
same,half-life at 1 µM,[27],3.38 h
same,AUC(0-t) at 24 h,[28],16.1 µg·h/mL
same,bioavailability,[29],69.9%
same,AUC(0-t) at 672 h,[30],2390 µg·h/mL
same,Activity,[31],Toxic
same,Vdss,[32],0.31 L/kg
same,Activity,[33],Toxic
same,Activity,[34],Non-Toxic
same,Activity,[35],Toxic
